Data reported in patent US20250289814A1, “COMPOUNDS AS PARP1 INHIBITIORS” (NINGBO NEWBAY TECHNOLOGY DEVELOPMENT CO., LTD., priority 2022, published 2025).
In brackets after ≈: the same amount, converted by molar mass. Several values for one entry are separate records, joined by “and”; a condition that tells them apart may be missing. Equal values may be shown once. Read-outs that look alike come from different tables or passages of the source.

What was measured:
[1] = Caco2 (A-B/B-A) permeability; format: in vitro ADME; conditions: human; for efflux ratio at 120 min, 5 μM: Caco-2, pH 7.4, PappB-A/PappA-B, read-out: Caco2 efflux ratio (ER); for Papp A→B at 120 min, 5 μM: Caco-2, pH 7.4, apical-to-basolateral, read-out: Caco2 A-B apparent permeability (Papp); for Papp A→B at 120 min, 5 μM / Papp B→A at 120 min, 5 μM: HBSS pH 7.4, 120 min, 37° C.; for Papp B→A at 120 min, 5 μM: Caco-2, pH 7.4, basolateral-to-apical, read-out: Caco2 B-A apparent permeability (Papp)
In short: (§1)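 Bidirectional A-B and B-A transport of 5 μM compound across Caco-2 monolayers in HBSS (10 mM HEPES, pH 7.4), duplicate, ~37° C for 120 min. Donor and receiver levels measured by UPLC-MS/MS give Papp. Efflux ratio = PappB-A/PappA-B, with monolayer integrity checked by Lucifer yellow.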

DLD1-BRCA2−/− cells = experiment: Cell proliferation assay in DLD1-BRCA2−/− cell lines (CellTiter-Glo, 7 days); format: cell-based
In short: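 Cells in RPMI 1640 + 10% FBS seeded overnight, then exposed to compound or vehicle for 7 days at 37 °C, 5% CO2. Viability read on day 8 by CellTiter-Glo luminescence; % inhibition fitted to a four-parameter logistic curve for IC50.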

[2] = target: Recombinant full length PARP1 (Homo sapiens (Human), UniProt P09874); experiment: FP assay PARP1 (fluorescence anisotropy probe displacement); format: binding; conditions: 20 nM PARP1, 8 nM fluorescent probe, 4 h, room temperature
Sequence of Recombinant full length PARP1 (P09874 whole entry): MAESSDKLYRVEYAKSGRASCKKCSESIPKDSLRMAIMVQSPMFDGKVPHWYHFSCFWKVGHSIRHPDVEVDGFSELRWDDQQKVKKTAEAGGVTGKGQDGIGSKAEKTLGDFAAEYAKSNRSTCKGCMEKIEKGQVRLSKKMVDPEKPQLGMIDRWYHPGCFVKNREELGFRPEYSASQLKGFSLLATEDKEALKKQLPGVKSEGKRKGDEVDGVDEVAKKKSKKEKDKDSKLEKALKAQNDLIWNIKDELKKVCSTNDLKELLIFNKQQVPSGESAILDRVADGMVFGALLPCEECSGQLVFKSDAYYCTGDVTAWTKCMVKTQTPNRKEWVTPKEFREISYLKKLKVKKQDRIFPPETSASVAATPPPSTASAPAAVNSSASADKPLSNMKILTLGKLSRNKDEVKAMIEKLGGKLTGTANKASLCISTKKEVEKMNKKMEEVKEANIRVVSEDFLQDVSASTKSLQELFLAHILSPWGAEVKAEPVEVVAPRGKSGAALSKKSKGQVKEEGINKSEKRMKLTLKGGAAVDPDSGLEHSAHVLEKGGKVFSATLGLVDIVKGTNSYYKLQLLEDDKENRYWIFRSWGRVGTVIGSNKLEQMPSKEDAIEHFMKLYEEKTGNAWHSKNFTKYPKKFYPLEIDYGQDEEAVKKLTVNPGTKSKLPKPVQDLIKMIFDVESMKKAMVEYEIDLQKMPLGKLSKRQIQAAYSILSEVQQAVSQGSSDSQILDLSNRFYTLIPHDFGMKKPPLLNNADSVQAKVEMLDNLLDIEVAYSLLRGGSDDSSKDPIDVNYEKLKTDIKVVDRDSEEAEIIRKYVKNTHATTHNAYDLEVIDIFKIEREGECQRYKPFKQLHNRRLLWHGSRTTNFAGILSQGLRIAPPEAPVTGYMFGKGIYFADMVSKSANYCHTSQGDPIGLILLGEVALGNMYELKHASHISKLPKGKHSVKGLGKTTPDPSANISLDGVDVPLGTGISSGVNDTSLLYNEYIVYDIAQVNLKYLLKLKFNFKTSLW
Description: (§2) FP experiments were carried out at room temperature using no-binding black 384-well microplates. Recombinant full length PARP1 and PARP2 proteins produced in house were diluted to 20 nM and 60 nM, respectively, with assay buffer (50 mM Tris pH 8, 0.001% Triton X100, 10 mM MgCl2, and 150 mM NaCl) and incubated for 4 h with an equivalent volume of the 8 nM fluorescent probe diluted with assay buffer. Fluorescence anisotropy of the probe when bound to the proteins was measured in the presence of test compounds or solvent control and the effect on anisotropy determined. Polarization values were read using an Envision plate reader using excitation and emission wavelengths of 590 and 630 nm, respectively. All FP values are expressed as mP units. Inhibition ratio was calculated using readout (mP) following the equation as below: […]
(§3) % inhibition values for different test compound concentrations were calculated and fitted to a four parameter logistic plot in order to determine the IC50 value using XLfit.

[3] = Kinetic solubility, PBS, pH7.4; format: physicochemical; conditions: 300 μM test compound
Description: After incubation, the samples were filtered, and the filtrate was diluted by 1000-fold with water:acetonitrile 1:1 (v/v) for analysis by UPLC MS/MS to determine the concentration of test compound. The solubility value was calculated by quantification against a standard of known concentration.

[4] = target: Recombinant full length PARP2 (Homo sapiens (Human), UniProt Q9UGN5); experiment: FP assay PARP2 (fluorescence anisotropy probe displacement); format: binding; conditions: 60 nM PARP2, 8 nM fluorescent probe, 4 h, room temperature
Sequence of Recombinant full length PARP2 (Q9UGN5 whole entry): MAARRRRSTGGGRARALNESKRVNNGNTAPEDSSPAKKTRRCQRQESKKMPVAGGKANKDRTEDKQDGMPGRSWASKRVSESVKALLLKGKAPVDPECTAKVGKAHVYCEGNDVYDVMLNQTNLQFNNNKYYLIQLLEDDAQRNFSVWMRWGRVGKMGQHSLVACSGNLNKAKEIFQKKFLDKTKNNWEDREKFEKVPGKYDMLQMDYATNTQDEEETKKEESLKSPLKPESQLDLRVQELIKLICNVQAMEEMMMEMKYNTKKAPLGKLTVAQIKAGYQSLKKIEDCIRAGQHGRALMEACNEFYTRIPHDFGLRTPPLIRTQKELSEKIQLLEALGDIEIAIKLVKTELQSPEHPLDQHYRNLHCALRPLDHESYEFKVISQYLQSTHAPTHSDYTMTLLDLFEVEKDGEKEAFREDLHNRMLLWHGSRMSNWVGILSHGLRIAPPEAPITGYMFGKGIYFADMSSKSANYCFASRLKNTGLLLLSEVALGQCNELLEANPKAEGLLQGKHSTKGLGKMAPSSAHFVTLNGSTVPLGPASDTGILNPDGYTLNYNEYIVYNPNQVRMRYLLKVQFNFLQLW
Description: as §2, §3

[5] = Thermodynamic solubility, FaSSiF; format: physicochemical; conditions: for solubility thermodynamic at 24 h: FaSSIF, 25 °C, thermodynamic from solid
Description: All incubations were performed in duplicate. Test compound or the control compound diclofenac sodium (1.0 mg) were placed into 1.5 mL glass vials. FaSSIF (1000 μL) was added into the vials. The samples were transferred to Eppendorf Thermomixer Comfort plate shaker and shaken at 25° C., 1100 rpm for 24 hours. The samples were then filtered. The filtrate was diluted by 1000-fold with water:acetonitrile 1:1 (v/v) for analysis by UPLC MS/MS to determine the concentration of test compound. The solubility value was calculated by quantification against a standard of known concentration.

Caco-2 cell monolayers = experiment: Caco2 (A-B/B-A) permeability; format: in vitro ADME; conditions: for Caco2 efflux ratio (ER): PappB-A/PappA-B; for Caco2 A-B apparent permeability (Papp): apical-to-basolateral; for Caco2 A-B apparent permeability (Papp) / Caco2 B-A apparent permeability (Papp): 5 μM, HBSS pH 7.4, 120 min, 37° C.; for Caco2 B-A apparent permeability (Papp): basolateral-to-apical
In short: as §1

[6] = PBS pH 7.4, 25 °C, pH 7.4, aqueous buffer, kinetic from dmso stock

SMILES	efflux ratio at 120 min, 5 μM [1]	Papp A→B at 120 min, 5 μM [1] [×10⁻⁶ cm/s]	Papp B→A at 120 min, 5 μM [1] [×10⁻⁶ cm/s]	IC50 (DLD1-BRCA2−/− cells; Homo sapiens, DLD-1, 168 h) [µM]	IC50 [2] [µM]	solubility kinetic at 2 h [3, 6] [µM]	IC50 [4] [µM]	solubility thermodynamic at 24 h [5] [µg/mL]	solubility kinetic at 2 h ([3]; 25° C., read-out: Kinetic solubility, PBS, pH 7.4) [µM]	Thermodynamic Solubility, FaSSiF ([5]; 25° C., 24 hours)	Caco2 efflux ratio (ER) (Caco-2 cell monolayers)	Caco2 A-B apparent permeability (Papp) (Caco-2 cell monolayers)	Caco2 B-A apparent permeability (Papp) (Caco-2 cell monolayers)	IC50 (DLD1-BRCA2−/− cells) [µM]
CCc1cc2ncc([C@H](C)N3CC(Oc4ccc(C(=O)NC)nc4)C3)cc2[nH]c1=O [Compound 5, (S)-5-((1-(1-(7-ethyl-6-oxo-5,6-dihydro-1,5-naphthyridin-3-yl)ethyl)azetidin-3-yl)oxy)-N-methylpicolinamide]	9.78	3.39	33.2	0.0069	0.0052	250 (≈ 102 µg/mL)	3.12	107 (≈ 262 µM)	281.58 (≈ 115 µg/mL)	145.89 µg/mL and 126.09 µg/mL	–	–	–	–
CCc1cc2cnc([C@@H](C)N3CC(Oc4ccc(C(=O)NC)nc4)C3)cc2[nH]c1=O (single isomer, unassigned) [Compound 47, (enantiomer 1 or 2)-5-((1-(1-(3-ethyl-2-oxo-1,2-dihydro-1,6-naphthyridin-7-yl)ethyl)azetidin-3-yl)oxy)-N-methylpicolinamide]	–	4.82	35.6	0.0268	0.0058	–	> 10	–	–	–	(ER = 7.38)	–	–	–
CCc1cc2cnc([C@H](C)N3CC(Oc4ccc(C(=O)NC)nc4F)C3)cc2[nH]c1=O (single isomer, unassigned; enantiomer 2) [Compound 50, (enantiomer 2)-5-((1-(1-(3-ethyl-2-oxo-1,2-dihydro-1,6-naphthyridin-7-yl)ethyl)azetidin-3-yl)oxy)-6-fluoro-N-methylpicolinamide]	–	–	–	–	0.0181	–	> 10	–	–	–	(ER = 8.36)	3.84 10*−6 cm/s	32.1 10*−6 cm/s	0.0072
CCc1nc2ccc([C@H](C)N3CC(Oc4ccc(C(=O)NC)nc4)C3)cc2[nH]c1=O (single isomer, unassigned) [Compound 53, (enantiomer 1 or 2)-5-((1-(1-(2-ethyl-3-oxo-3,4-dihydroquinoxalin-6-yl)ethyl)azetidin-3-yl)oxy)-N-methylpicolinamide]	–	–	–	–	0.0242	–	> 10	–	–	–	(ER = 2.51)	13.2 10*−6 cm/s	33.19 10*−6 cm/s	0.0121

Further lines, results first:

efflux ratio at 120 min, 5 μM [1]	Papp A→B at 120 min, 5 μM [1] [×10⁻⁶ cm/s]	Papp B→A at 120 min, 5 μM [1] [×10⁻⁶ cm/s]	IC50 (DLD1-BRCA2−/− cells; Homo sapiens, DLD-1, 168 h) [µM]	IC50 [2] [µM]	solubility kinetic at 2 h [3, 6] [µM]	IC50 [4] [µM]	solubility thermodynamic at 24 h [5] [µg/mL]	solubility kinetic at 2 h ([3]; 25° C., read-out: Kinetic solubility, PBS, pH 7.4) [µM]	Thermodynamic Solubility, FaSSiF ([5]; 25° C., 24 hours)	Caco2 efflux ratio (ER) (Caco-2 cell monolayers)	Caco2 A-B apparent permeability (Papp) (Caco-2 cell monolayers)	Caco2 B-A apparent permeability (Papp) (Caco-2 cell monolayers)	IC50 (DLD1-BRCA2−/− cells) [µM]	SMILES
7.49	4.77	35.7	0.216	0.0103	223 (≈ 90.9 µg/mL)	> 10	115 (≈ 283 µM)	–	–	–	–	–	–	CCc1cc2ncc([C@@H](C)N3CC(Oc4ccc(C(=O)NC)nc4)C3)cc2[nH]c1=O [Compound 4, (R)-5-((1-(1-(7-ethyl-6-oxo-5,6-dihydro-1,5-naphthyridin-3-yl)ethyl)azetidin-3-yl)oxy)-N-methylpicolinamide]
–	3.86	22.7	0.0045	0.0048	29.4 (≈ 11.6 µg/mL)	–	1.77 (≈ 4.5 µM)	–	–	–	–	–	–	CCc1cc2ncc(CN3CC(Oc4ccc(C(=O)NC)nc4)C3)cc2[nH]c1=O [Compound 1, 5-((1-((7-ethyl-6-oxo-5,6-dihydro-1,5-naphthyridin-3-yl)methyl)azetidin-3-yl)oxy)-N-methylpicolinamide]
–	–	–	–	0.0043	–	2.58	–	–	–	(ER = 8.07)	5.51 10*−6 cm/s	44.49 10*−6 cm/s	0.0066	CCc1cc2ncc([C@@H](C)N3CC(Oc4ccc(C(=O)NC)nc4F)C3)cc2[nH]c1=O (single isomer, unassigned; enantiomer 2) [Compound 46, (enantiomer 2)-5-((1-(1-(7-ethyl-6-oxo-5,6-dihydro-1,5-naphthyridin-3-yl)ethyl)azetidin-3-yl)oxy)-6-fluoro-N-methylpicolinamide]
